Experimental data published in patent US20250255848A1, “SUBSTITUTED 6,7-DIHYDRO-5H-BENZO[7]ANNULENE DERIVATIVES, PROCESSES FOR THEIR PREPARATION AND THERAPEUTIC USES THEREOF” (SANOFI, priority 2022, published 2025).

Biological target: ERα (Homo sapiens (Human), UniProt P03372)
Assay: Estrogen receptor degradation activity: breast cancer cell ERα in cell western assay
Format: cell-based
Conditions: MCF7 cells; for % Degradation At 0.3 μM: 4 hours, normalised to fulvestrant 0.1 μM and DMSO; for DC50 / IC50: 4 hours post compound addition, concentration which degrades 50% of the estrogen receptor; for DC50: read-out: Degradation IC50
Procedure: Said test involves measuring the in vitro degradation activity of the compounds of the Table 1a.
The measurements of the degradation activities were made using a breast cancer cell ERα in cell western assay as described hereunder.
MCF7 cells (ATCC) were seeded in 384 wells microplate (collagen coated) at a concentration of 10000 cells/30 μL per well in red phenol free MEM alpha medium (invitrogen) containing 5% charcoal dextran striped FBS. The following day, 9 points serial 1:5 dilution of each compound was added to the cells in 2.5 μL at final concentrations ranging from 0.3-0.0000018 μM (in table 2), or 0.1 μM for fulvestrant (using as positive control). At 4 hours post compound addition the cells were fixed by adding 25 μL of formalin (final concentration 5% formalin containing 0.1% triton) for 10 minutes at room temperature and then washed twice with PBS. Then, 50 μL of LI-COR blocking buffer containing 0.1% Triton was added to plate for 30 minutes at room temperature. LI-COR blocking buffer was removed and cells were incubated overnight at cold room with 50 μL anti-ER rabbit monoclonal antibody (Thermo scientific MA1-39540) diluted at 1:1000 in LI-COR blocking buffer containing 0.1% tween-20. Wells which were treated with blocking buffer but no antibody were used as background control. Wells were washed twice with PBS (0.1% tween-20) and incubated at 37° C. for 60 minutes in LI-COR (0.1% tween-20) containing goat anti-rabbit antibody Alexa 488 (1:1000) and Syto-64 a DNA dye (2 μM final concentration). Cells were then washed 3 times in PBS and scanned in ACUMEN explorer (TTP-Labtech). Integrated intensities in the green fluorescence and red fluorescence were measured to determine the levels of ERα and DNA respectively.
The degradation activity with respect to estrogen receptors in this test is given by the concentration which degrades 50% of the estrogen receptor (or IC50) in nM.
The % of ERα levels decrease were determined as follows: % inhibition=100*(1−(sample−fulvestrant:DMSO−fulvestrant)).

Sequence of ERα (P03372 whole entry): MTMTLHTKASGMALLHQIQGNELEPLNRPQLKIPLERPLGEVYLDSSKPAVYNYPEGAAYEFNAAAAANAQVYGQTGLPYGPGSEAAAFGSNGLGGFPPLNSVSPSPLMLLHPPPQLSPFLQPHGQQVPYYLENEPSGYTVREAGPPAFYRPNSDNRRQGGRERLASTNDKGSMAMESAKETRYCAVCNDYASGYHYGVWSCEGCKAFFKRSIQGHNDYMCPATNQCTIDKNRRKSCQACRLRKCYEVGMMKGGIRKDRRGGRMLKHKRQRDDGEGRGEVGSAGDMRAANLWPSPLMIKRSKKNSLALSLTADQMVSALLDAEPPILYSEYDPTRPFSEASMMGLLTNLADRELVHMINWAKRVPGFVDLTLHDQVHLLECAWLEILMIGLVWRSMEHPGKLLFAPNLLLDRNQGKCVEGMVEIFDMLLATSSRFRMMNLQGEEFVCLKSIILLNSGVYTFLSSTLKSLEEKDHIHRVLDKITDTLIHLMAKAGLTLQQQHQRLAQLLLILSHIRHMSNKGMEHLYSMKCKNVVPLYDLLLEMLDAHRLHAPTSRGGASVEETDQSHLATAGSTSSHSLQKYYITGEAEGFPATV

Row | SMILES | % Degradation At 0.3 μM [%] | DC50 [nM] | IC50 [nM]
1 | O=C(O)c1ccc2c(c1)CCCC(C1CC13CCC3)=C2c1ccc(C=C2CN(CCCF)C2)cc1 (single isomer, unassigned) [Compound 35, 9-(4-((1-(3-fluoropropyl)azetidin-3-ylidene)methyl)phenyl)-8-(spiro[2.3]hexan-1-yl)-6,7-dihydro-5H-benzo[7]annulene-3-carboxylic acid] | 91 | 0.3 | –
2 | O=C(O)c1ccc2c(c1)CCCC(C1CC13CCC3)=C2c1ccc(C=C2CN(CCCF)C2)cc1 (single isomer, unassigned) [Compound 36, 9-(4-((1-(3-fluoropropyl)azetidin-3-ylidene)methyl)phenyl)-8-(spiro[2.3]hexan-1-yl)-6,7-dihydro-5H-benzo[7]annulene-3-carboxylic acid] | 92 | 0.2 | –
3 | O=C(O)c1ccc2c(c1)CCCC(c1ccc(Cl)cc1Cl)=C2c1ccc(C=C2CN(CC(F)CF)C2)cc1 (single isomer, unassigned) [Compound 69, 8-(2,4-dichlorophenyl)-9-(4-((1-(2,3-difluoropropyl)azetidin-3-ylidene)methyl)phenyl)-6,7-dihydro-5H-benzo[7]annulene-3-carboxylic acid] | 74 | 1.3 | –
4 | O=C(O)c1ccc2c(c1)CCCC(c1ccc(Cl)cc1Cl)=C2c1ccc(C=C2CN(CC(F)CF)C2)cc1 (single isomer, unassigned) [Compound 70, 8-(2,4-dichlorophenyl)-9-(4-((1-(2,3-difluoropropyl)azetidin-3-ylidene)methyl)phenyl)-6,7-dihydro-5H-benzo[7]annulene-3-carboxylic acid] | 81 | 1.8 | –
5 | Cc1cccc(C(F)(F)F)c1C1=C(c2ccc(C=C3CN(CCCF)C3)cc2)c2ccc(C(=O)O)cc2CCC1 [Compound 1, 9-(4-((1-(3-fluoropropyl)azetidin-3-ylidene)methyl)phenyl)-8-(2-methyl-6-(trifluoromethyl)phenyl)-6,7-dihydro-5H-benzo[7]annulene-3-carboxylic acid] | 92 | – | 0.3
6 | O=C(O)c1ccc2c(c1)CCCC(c1ccc(F)c(F)c1C(F)(F)F)=C2c1ccc(C=C2CN(CCCF)C2)cc1 [Compound 2, 8-(3,4-difluoro-2-(trifluoromethyl)phenyl)-9-(4-((1-(3-fluoropropyl)azetidin-3-ylidene)methyl)phenyl)-6,7-dihydro-5H-benzo[7]annulene-3-carboxylic acid] | 90 | – | 1
7 | COc1c(C)cccc1C1=C(c2ccc(C=C3CN(CCCF)C3)cc2)c2ccc(C(=O)O)cc2CCC1 [Compound 3, 9-(4-((1-(3-fluoropropyl)azetidin-3-ylidene)methyl)phenyl)-8-(2-methoxy-3-methylphenyl)-6,7-dihydro-5H-benzo[7]annulene-3-carboxylic acid] | 90 | – | 0.7
8 | COc1cccc(C)c1C1=C(c2ccc(C=C3CN(CCCF)C3)cc2)c2ccc(C(=O)O)cc2CCC1 [Compound 4, 9-(4-((1-(3-fluoropropyl)azetidin-3-ylidene)methyl)phenyl)-8-(2-methoxy-6-methylphenyl)-6,7-dihydro-5H-benzo[7]annulene-3-carboxylic acid] | 90 | – | 1.1
9 | CCc1c(C2=C(c3ccc(C=C4CN(CCCF)C4)cc3)c3ccc(C(=O)O)cc3CCC2)cccc1C(F)(F)F [Compound 5, 8-(2-ethyl-3-(trifluoromethyl)phenyl)-9-(4-((1-(3-fluoropropyl)azetidin-3-ylidene)methyl)phenyl)-6,7-dihydro-5H-benzo[7]annulene-3-carboxylic acid] | 93 | – | 0.3
10 | COc1cccc(C(F)(F)F)c1C1=C(c2ccc(C=C3CN(CCCF)C3)cc2)c2ccc(C(=O)O)cc2CCC1 [Compound 6, 9-(4-((1-(3-fluoropropyl)azetidin-3-ylidene)methyl)phenyl)-8-(2-methoxy-6-(trifluoromethyl)phenyl)-6,7-dihydro-5H-benzo[7]annulene-3-carboxylic acid] | 91 | – | 0.3
11 | COc1c(F)ccc(C)c1C1=C(c2ccc(C=C3CN(CCCF)C3)cc2)c2ccc(C(=O)O)cc2CCC1 [Compound 7, 8-(3-fluoro-2-methoxy-6-methylphenyl)-9-(4-((1-(3-fluoropropyl)azetidin-3-ylidene)methyl)phenyl)-6,7-dihydro-5H-benzo[7]annulene-3-carboxylic acid] | 94 | – | 0.5
12 | CCc1cccc(C2=C(c3ccc(C=C4CN(CCCF)C4)cc3)c3ccc(C(=O)O)cc3CCC2)c1C(F)(F)F [Compound 8, 8-(3-ethyl-2-(trifluoromethyl)phenyl)-9-(4-((1-(3-fluoropropyl)azetidin-3-ylidene)methyl)phenyl)-6,7-dihydro-5H-benzo[7]annulene-3-carboxylic acid] | 93 | – | 0.8
13 | O=C(O)c1ccc2c(c1)CCCC(c1c(F)cccc1OC(F)(F)F)=C2c1ccc(C=C2CN(CCCF)C2)cc1 [Compound 9, 8-(2-fluoro-6-(trifluoromethoxy)phenyl)-9-(4-((1-(3-fluoropropyl)azetidin-3-ylidene)methyl)phenyl)-6,7-dihydro-5H-benzo[7]annulene-3-carboxylic acid] | 96 | – | 0.6
14 | Cc1cc(C)c(C2=C(c3ccc(C=C4CN(CCCF)C4)cc3)c3ccc(C(=O)O)cc3CCC2)c(C)c1 [Compound 10, 9-(4-((1-(3-fluoropropyl)azetidin-3-ylidene)methyl)phenyl)-8-mesityl-6,7-dihydro-5H-benzo[7]annulene-3-carboxylic acid] | 93 | – | 0.5
15 | Cc1cc(C)c(C2=C(c3ccc(C=C4CN(CCCF)C4)cc3)c3ccc(C(=O)O)cc3CCC2)c(Cl)c1 [Compound 11, 8-(2-chloro-4,6-dimethylphenyl)-9-(4-((1-(3-fluoropropyl)azetidin-3-ylidene)methyl)phenyl)-6,7-dihydro-5H-benzo[7]annulene-3-carboxylic acid] | 92 | – | 0.4
16 | Cc1ccc(C2=C(c3ccc(C=C4CN(CCCF)C4)cc3)c3ccc(C(=O)O)cc3CCC2)c(C)c1F [Compound 12, 8-(3-fluoro-2,4-dimethylphenyl)-9-(4-((1-(3-fluoropropyl)azetidin-3-ylidene)methyl)phenyl)-6,7-dihydro-5H-benzo[7]annulene-3-carboxylic acid] | 92 | – | 0.7
17 | Cc1ccc(C2=C(c3ccc(C=C4CN(CCCF)C4)cc3)c3ccc(C(=O)O)cc3CCC2)c(C)c1Cl [Compound 13, 8-(3-chloro-2,4-dimethylphenyl)-9-(4-((1-(3-fluoropropyl)azetidin-3-ylidene)methyl)phenyl)-6,7-dihydro-5H-benzo[7]annulene-3-carboxylic acid] | 91 | – | 0.4
18 | COc1cc(C)cc(C)c1C1=C(c2ccc(C=C3CN(CCCF)C3)cc2)c2ccc(C(=O)O)cc2CCC1 [Compound 14, 9-(4-((1-(3-fluoropropyl)azetidin-3-ylidene)methyl)phenyl)-8-(2-methoxy-4,6-dimethylphenyl)-6,7-dihydro-5H-benzo[7]annulene-3-carboxylic acid] | 91 | – | 0.6
19 | CC(F)(F)c1cc(F)ccc1C1=C(c2ccc(C=C3CN(CCCF)C3)cc2)c2ccc(C(=O)O)cc2CCC1 [Compound 15, 8-(2-(1,1-difluoroethyl)-4-fluorophenyl)-9-(4-((1-(3-fluoropropyl)azetidin-3-ylidene)methyl)phenyl)-6,7-dihydro-5H-benzo[7]annulene-3-carboxylic acid] | 91 | – | 0.4
20 | O=C(O)c1ccc2c(c1)CCCC(c1c(Cl)cccc1C(F)(F)F)=C2c1ccc(C=C2CN(CCCF)C2)cc1 [Compound 16, 8-(2-chloro-6-(trifluoromethyl)phenyl)-9-(4-((1-(3-fluoropropyl)azetidin-3-ylidene)methyl)phenyl)-6,7-dihydro-5H-benzo[7]annulene-3-carboxylic acid] | 92 | – | 0.3
21 | O=C(O)c1ccc2c(c1)CCCC(c1c(Cl)cccc1OC(F)(F)F)=C2c1ccc(C=C2CN(CCCF)C2)cc1 [Compound 17, 8-(2-chloro-6-(trifluoromethoxy)phenyl)-9-(4-((1-(3-fluoropropyl)azetidin-3-ylidene)methyl)phenyl)-6,7-dihydro-5H-benzo[7]annulene-3-carboxylic acid] | 91 | – | 0.5
